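These data come from cells grown in 96-well plates and exposed to compound for 48 hours at five concentrations. At the TGI there is no net growth.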
What was measured:
Experiment in all cases: growth of human tumour cells (NCI), 48 h
PC-3 prostate = test system: PC-3 prostate
MDA-MB-435 = test system: MDA-MB-435
NCI-H226 lung = test system: NCI-H226 lung
SK-MEL-28 melanoma = test system: SK-MEL-28 melanoma
OVCAR-8 ovarian = test system: OVCAR-8 ovarian
SNB-75 CNS = test system: SNB-75 CNS
SK-MEL-2 melanoma = test system: SK-MEL-2 melanoma
CAKI-1 renal = test system: CAKI-1 renal
UACC-62 melanoma = test system: UACC-62 melanoma
NCI/ADR-RES ovarian = test system: NCI/ADR-RES ovarian
TK-10 renal = test system: TK-10 renal
IGROV1 ovarian = test system: IGROV1 ovarian
A549 NSCLC = test system: A549 NSCLC
HCT-116 colon = test system: HCT-116 colon
SNB-19 CNS = test system: SNB-19 CNS
KM12 colon = test system: KM12 colon
786-0 renal = test system: 786-0 renal
CCRF-CEM leukemia = test system: CCRF-CEM leukemia
SR leukemia = test system: SR leukemia
LOX IMVI melanoma = test system: LOX IMVI melanoma

Compound | TGI (PC-3 prostate) [µM] | TGI (MDA-MB-435) [µM] | TGI (NCI-H226 lung) [µM] | TGI (SK-MEL-28 melanoma) [µM] | TGI (OVCAR-8 ovarian) [µM] | TGI (SNB-75 CNS) [µM] | TGI (SK-MEL-2 melanoma) [µM] | TGI (CAKI-1 renal) [µM] | TGI (UACC-62 melanoma) [µM] | TGI (NCI/ADR-RES ovarian) [µM] | TGI (TK-10 renal) [µM] | TGI (IGROV1 ovarian) [µM] | TGI (A549 NSCLC) [µM] | TGI (HCT-116 colon) [µM] | TGI (SNB-19 CNS) [µM] | TGI (KM12 colon) [µM] | TGI (786-0 renal) [µM] | TGI (CCRF-CEM leukemia) [µM] | TGI (SR leukemia) [µM] | TGI (LOX IMVI melanoma) [µM]
COc1ccc(CCCCl)c(C2=NCCc3cc(OC)c(OC)cc32)c1 | > 100 | > 100 | > 100 | > 100 | > 100 | > 100 | > 100 | > 100 | > 100 | > 100 | > 100 | > 100 | > 100 | > 100 | > 100 | > 100 | > 100 | > 100 | > 100 | 
Cc1ccc(S(=O)(=O)N2CCC(=O)c3cc(Br)ccc32)cc1 | 75.4 | 4.98 | > 100 | > 100 | > 100 | 59.6 | 36.3 | > 100 | 18.3 | 58.9 | 54.4 | > 100 | 32.1 | > 100 | 99.4 | > 26.1 | > 67.2 |  | > 100 | > 64.6
COc1c2cc(C(C)(C)C)cc1Cc1cccc(c1OCc1cccc([N+](=O)[O-])c1)Cc1cc(C(C)(C)C)cc(c1OC)Cc1cccc(c1OCc1cccc([N+](=O)[O-])c1)Cc1cc(C(C)(C)C)cc(c1OC)Cc1cccc(c1OCc1cccc([N+](=O)[O-])c1)C2 | > 50 | > 50 |  | > 50 | > 50 | > 50 | > 50 | > 50 | > 50 | > 50 |  | > 50 | > 50 | > 50 | > 50 | > 50 | > 50 | > 5 | > 50 | 
CCN(C(=O)N[C@@H](Cc1ccccc1)C(=O)N[C@@H](CC(C)C)C(=O)OC)c1ccccc1 | 97.4 | > 100 | 47.6 | 32.6 | 36.7 |  | > 100 | 84.7 | 36.1 | > 100 | > 100 | 42.2 | > 100 | 39.2 | > 100 | > 100 | 40.5 | > 100 | 23.9 | 30.1
Fc1ccc(Oc2nc3ccc(C(F)(F)F)cc3nc2-c2ccccc2)cc1 | > 100 | > 100 |  |  | > 100 | > 100 | > 100 | 70.8 | > 100 | > 100 | > 100 | > 100 | > 100 | > 100 | > 100 | > 100 | > 100 | > 10 | 70.9 | > 100
C[C@@]1(O)C[C@@H](N2C(=O)O[C@@H](c3ccccc3)[C@H]2c2ccccc2)[C@@H]1COCc1ccccc1 | 50.3 | > 100 | 42.8 | 44.5 | 54 |  | 27.5 | > 100 | 31.5 | 64.8 | 99.7 | > 100 | 97.9 | 47.4 | > 100 | 74.3 | 48.9 |  | 52.7 | 32.9
C/C(=C(/C)c1ccc(O)cc1)c1ccc(O)cc1 | > 100 | > 100 | > 100 |  | > 100 | > 100 | > 100 | > 100 | 83.3 | > 100 | > 100 | > 100 | > 100 | > 100 | > 100 | > 100 | > 100 | > 100 | 83.8 | 
CC12O[C@]3([C@H](C(=O)N4CCOC43C)[C@H]1Cl)[C@H]1O[C@H]12 (stereo partly drawn) | > 100 | > 100 | > 100 | > 100 | > 100 | > 100 | > 100 | > 100 | > 100 | > 100 | > 100 | > 100 | > 100 | > 100 | > 100 | > 100 | > 100 |  | > 100 | > 100
O=c1c2ccccc2nc(-c2cc3c(cc2Cl)Sc2nccn2S3(=O)=O)n1-c1ccccc1 | 30.8 | 71.1 | > 100 | 41.8 | 44 | 52.2 | 43.5 | > 100 | 71.7 | 46.8 | 49.9 | > 100 | > 100 | 29.8 | > 100 | 24.7 | 94.6 |  | > 100 | > 100
O=C(NNC(=S)Nc1ccccc1)c1cc(-c2ccccc2)nc2ccccc12 | 56.4 | 59.4 | 63.8 | 59.5 | 57.6 | 71.3 | 31.9 | 64.8 | 39.1 | 52.1 | > 100 | > 100 | 41.2 | 28.5 | > 100 | > 100 | 30 | 29.9 | 32.9 | 
Cc1ccc2nc(Cl)c(/C=N/N3C(=O)/C(=C/c4cccc([N+](=O)[O-])c4)N=C3c3ccccc3)cc2c1 | 76.9 | 54.5 |  | > 100 | > 100 | > 100 | 61.7 | > 100 | > 100 | > 100 | > 100 | > 100 | > 100 | > 100 | > 100 | > 100 | > 100 | 97 | 59.6 | > 100
O=C1Nc2ccccc2C1=Nc1cccc2ncccc12 | > 100 | 42.3 | > 100 | > 100 | > 100 | > 100 | > 100 | > 100 | > 100 | > 100 | > 100 | > 100 | > 100 | > 100 | > 100 | > 100 | > 100 |  | > 100 | > 100
